As usually defined, the Emax is the maximal effect, on the per cent scale that the assay sets.

Structures are written as SMILES. Like-named read-outs stand apart in the source and are kept apart here.

Test [1] concerns the target T1, human muscarinic M1 receptor (Homo sapiens, UniProt P11229).
T1 sequence (P11229 1-460): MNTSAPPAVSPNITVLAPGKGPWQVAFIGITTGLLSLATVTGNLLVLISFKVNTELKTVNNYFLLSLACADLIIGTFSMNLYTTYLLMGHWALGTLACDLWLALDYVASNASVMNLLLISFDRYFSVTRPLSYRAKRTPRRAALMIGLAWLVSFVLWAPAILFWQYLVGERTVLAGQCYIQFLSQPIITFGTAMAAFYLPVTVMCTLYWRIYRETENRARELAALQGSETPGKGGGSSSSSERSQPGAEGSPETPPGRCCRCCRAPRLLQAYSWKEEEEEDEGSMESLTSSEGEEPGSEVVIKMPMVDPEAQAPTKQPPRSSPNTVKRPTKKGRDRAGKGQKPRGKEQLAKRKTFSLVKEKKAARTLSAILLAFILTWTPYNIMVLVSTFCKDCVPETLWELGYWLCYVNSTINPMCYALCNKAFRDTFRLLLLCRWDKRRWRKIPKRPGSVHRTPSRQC
The test is described as follows: Alphascreen Surefire phospho-ERK1/2 functional assay, M1. In kind it is cell-based. Particulars: for EC50: CHO cells stably expressing human M1, phospho-ERK1/2, * = variable results, read-out: pEC50 M1 (converted); for Emax: CHO. (In Alpha technology, singlet oxygen from a donor bead excites a nearby acceptor bead.)

In test [2] the target is T2, human muscarinic M4 receptor (Homo sapiens, UniProt P08173).
T2 construct: expressed in transfected cells
T2 sequence (P08173 1-479): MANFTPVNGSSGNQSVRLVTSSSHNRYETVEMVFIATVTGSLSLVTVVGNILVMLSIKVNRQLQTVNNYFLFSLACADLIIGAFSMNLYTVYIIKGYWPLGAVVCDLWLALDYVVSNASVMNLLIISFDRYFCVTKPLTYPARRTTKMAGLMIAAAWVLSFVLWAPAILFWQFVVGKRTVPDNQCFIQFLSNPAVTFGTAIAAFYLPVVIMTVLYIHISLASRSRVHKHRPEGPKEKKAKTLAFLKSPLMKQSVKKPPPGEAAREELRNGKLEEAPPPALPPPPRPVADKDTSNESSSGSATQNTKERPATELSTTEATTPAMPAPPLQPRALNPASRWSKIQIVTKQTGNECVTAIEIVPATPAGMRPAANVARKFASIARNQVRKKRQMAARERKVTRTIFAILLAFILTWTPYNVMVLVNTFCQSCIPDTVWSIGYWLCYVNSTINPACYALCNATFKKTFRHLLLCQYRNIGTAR
The test is described as follows: Alphascreen Surefire phospho-ERK1/2 functional assay, M4. The conditions noted are these: for EC50: CHO cells stably expressing human M4, phospho-ERK1/2, * = variable results, read-out: pEC50 M4 (converted); for Emax: CHO. In kind it is cell-based.

The mark [3] stands for this setting: read-out: % Emax cf. ACh, M1, CHO cells stably expressing human M1, relative to ACh.
Setting [4] is: read-out: % Emax cf. ACh, M4, CHO cells stably expressing human M4, relative to ACh.

With `CCOC(=O)N1CCC2(CC(N3CCC(n4cncn4)CC3)C2)C1` (single isomer, unassigned) [1-36 Isomer 2, ethyl 2-[4-(1H-1,2,4-triazol-1-yl)piperidin-1-yl]-6-azaspiro[3.4]octane-6-carboxylate], the EC50 in test [1] is 5010 nM; in test [2], 251 nM. In addition, the Emax in test [1] (setting [3]) is 73%; in test [2] (setting [4]), 47%.
As to `CCOC(=O)N1CCC2(CC(N3CCC(O)(c4ncc[nH]4)CC3)C2)C1` (single isomer, unassigned) [1-37 Isomer 2, ethyl 2-[4-hydroxy-4-(1 H-imidazol-2-yl)piperidin-1-yl]-6-azaspiro[3.4]octane-6-carboxylate], the EC50 in test [1] is 2510 nM; in test [2], 501 nM. In addition, the maximal response (Emax) came out at 78% in test [1] (read-out: % Emax cf. ACh, M1) and 126% in test [2] (read-out: % Emax cf. ACh, M4).
For `CCOC(=O)N1CCC2(CC(N3CCC(O)(c4nccn4C)CC3)C2)C1` (single isomer, unassigned) [1-39 Isomer 2, ethyl 2-[4-hydroxy-4-(1-methyl-1H-imidazol-2-yl)piperidin-1-yl]-6-azaspiro[3.4]octane-6-carboxylate], the EC50 was 1000 nM in test [1] and 398 nM in test [2]. Also, the Emax in test [1] (read-out: % Emax cf. ACh, M1) worked out at 49%; in test [2] (read-out: % Emax cf. ACh, M4) it was 97%.
The like results for `CCOC(=O)N1CCC2(CC(N3CCC(OC)(c4nccn4C)CC3)C2)C1` (single isomer, unassigned) [1-40 Isomer 2, ethyl 2-[4-methoxy-4-(1-methyl-1H-imidazol-2-yl)piperidin-1-yl]-6-azaspiro[3.4]octane-6-carboxylate] were, in that order, over 20000 nM, 158 nM, 904% and 50%.
With `CCOC(=O)N1CCC2(CC(N3CCC(C)(c4nc(C)no4)CC3)C2)C1` (single isomer, unassigned) [1-41 Isomer 2, ethyl 2-[4-methyl-4-(3-methyl-1,2,4-oxadiazol-5-yl)piperidin-1-yl]-6-azaspiro[3.4]octane-6-carboxylate], the EC50 was 1000 nM in test [1] and 251 nM in test [2]. Further, the maximal response (Emax) was found to be 52% in test [1] (read-out: % Emax cf. ACh, M1) and 35% in test [2] (read-out: % Emax cf. ACh, M4).
Regarding `CCn1nccc1C1CCN(C2CC3(CCN(C(=O)OC)C3)C2)CC1` (single isomer, unassigned) [1-46 Isomer 2, methyl 2-[4-(1-ethyl-1H-pyrazol-5-yl)piperidin-1-yl]-6-azaspiro[3.4]octane-6-carboxylate], the EC50 was over 20000 nM in test [1] and 200 nM in test [2]. In addition, the figures for the Emax in test [1] (setting [3]) and in test [2] (setting [4]) were 35% and 63%, respectively.
For `CCCn1nccc1C1CCN(C2CC3(CCN(C(=O)OC)C3)C2)CC1` (single isomer, unassigned) [1-48 Isomer 2, methyl 2-[4-(1-propyl-1H-pyrazol-5-yl)piperidin-1-yl]-6-azaspiro[3.4]octane-6-carboxylate], in that order: over 20000 nM, 631 nM, 63% and 68%.
As for `CCOC(=O)N1CCC2(CC(N3CCC(c4nccn4CCOC)CC3)C2)C1` (single isomer, unassigned) [1-51 Isomer 2, ethyl 2-{4-[1-(2-methoxyethyl)-1H-imidazol-2-yl]piperidin-1-yl}-6-azaspiro[3.4]octane-6-carboxylate], the EC50 in test [1] was 1260 nM; in test [2], 158 nM. The figures for the maximum response (Emax) in test [1] (setting [3]) and in test [2] (setting [4]) were 74% and 106%, respectively.
For `CCOC(=O)N1CCC2(CC(N3CCC(c4nccn4CC(=O)O)CC3)C2)C1` (single isomer, unassigned) [1-53 Isomer 2, (2-{1-[6-(ethoxycarbonyl)-6-azaspiro[3.4]oct-2-yl]piperidin-4-yl}-1H-imidazol-1-yl)acetic acid], in that order: 5010 nM, 1260 nM, 38% and 80%.

The values above are taken from patent US9926297B2, “Bicyclic AZA compounds as muscarinic M1 receptor and/or M4 receptor agonists” (Heptares Therapeutics Limited, priority 2014, dated 2018).
